Results published in the NIST ThermoML archive (doi:10.1016/j.jct.2019.03.005).

Conditions: Liquid, Frequency=3 MHz, Pulse-echo method

CC(C)(C)c1ccccc1 [(1,1-dimethylethyl)benzene]
speed of sound [m/s]
Conditions | 298.15 K | 313.15 K | 333.15 K | 353.15 K | 373.15 K | 393.15 K | 413.15 K | 433.15 K
100 kPa | 1316.4 | 1255.3 | 1176.9 | 1101.8 | 1029.9 | 959.3 | 890.9 | 823.7
20100 kPa | 1415.8 | 1360.3 | 1290.1 | 1223.5 | 1161.2 | 1101.1 | 1042.6 | 987.2
40100 kPa | 1501.7 | 1450.3 | 1385.4 | 1324.4 | 1267.7 | 1213.3 | 1161.1 | 1112.1
60100 kPa | 1578.5 | 1529.8 | 1469 | 1411.8 | 1359 | 1308.5 | 1260.2 | 1215.1
80100 kPa | 1647.9 | 1601.7 | 1543.9 | 1489.6 | 1439.6 | 1392 | 1346.6 | 1304.3
100100 kPa | 1711.7 | 1667.3 | 1612.5 | 1560.2 | 1512.4 | 1466.9 | 1423.8 | 1383.6

CC(C)c1ccccc1 [isopropylbenzene]
speed of sound [m/s]
Conditions | 298.15 K | 313.15 K | 333.15 K | 353.15 K | 373.15 K | 393.15 K | 413.15 K | 433.15 K
100 kPa | 1309.1 | 1247.6 | 1168.5 | 1091.8 | 1017.8 | 945.6 | 875 | –
10100 kPa | – | – | – | – | – | – | – | 897.7
20100 kPa | 1406.9 | 1351.3 | 1280.5 | 1213.2 | 1149.2 | 1088.1 | 1029.6 | 974
40100 kPa | 1491.7 | 1440 | 1374.7 | 1313.2 | 1255.1 | 1200.1 | 1147.8 | 1098.9
60100 kPa | 1566.8 | 1518.3 | 1457.2 | 1399.6 | 1345.6 | 1294.7 | 1246.5 | 1201.3
80100 kPa | 1634.8 | 1588.9 | 1530.9 | 1476.5 | 1425.6 | 1377.6 | 1332.1 | 1289.9
100100 kPa | 1697.4 | 1653.3 | 1598 | 1546 | 1497.4 | 1451.6 | 1408.6 | 1368.6
